Data published in paper PMC3565575 (Bioorganic & medicinal chemistry, 2010).

Experiments:
[1] = molecular target: sigma-1 receptor (Cavia porcellus, UniProt Q60492); experiment: Sigma-1 receptor competitive binding against; settings: Sigma 1 K1 values (nM) (± SEM, n=3), R^2 value, guinea pig liver membranes, 10 nM (+)-[3H]-pentazocine, brackets: SEM
[2] = test system: SKOV-3 (human ovarian adenocarcinoma); experiment: Multi-plex cytotoxicity assay, SKOV-3; assay type: cell-based; settings: SKOV-3 cells

Chain of sigma-1 receptor (Q60492 whole entry): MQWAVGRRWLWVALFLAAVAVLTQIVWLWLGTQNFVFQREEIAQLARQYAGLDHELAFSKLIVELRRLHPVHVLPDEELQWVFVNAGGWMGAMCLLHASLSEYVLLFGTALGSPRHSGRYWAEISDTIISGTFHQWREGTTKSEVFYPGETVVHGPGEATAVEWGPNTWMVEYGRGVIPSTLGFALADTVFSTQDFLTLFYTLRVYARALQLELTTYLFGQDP

Ki [1] [nM] | SMILES | Growth inhibition (in words) [2]
> 100000 | CCCN(Cc1cccc([N+](=O)[O-])c1)C(=O)CCc1ccc(F)cc1 [compound 6, 3-(4-Fluorophenyl)-N-(3-nitrobenzyl)-N-propylpropanamide] | –
– | CCCCN(CCCC)CCCc1ccc(F)cc1 [compound 9, N.N-Dibutyl-3-(4-fluorophenyl)propylamine] | the only cell line whose growth is inhibited by compound 9
